Laboratory results from the NIST ThermoML archive (doi:10.1016/j.fluid.2008.03.004).
± gives the expanded uncertainty stated by the source.

Assay: xn = mol fraction of the nth substance listed
Conditions: 101 kPa, Liquid; for speed of sound: Sing-around technique in a fixed-path interferometer

Cc1ccccc1C [1,2-dimethylbenzene] + COC(C)(C)C
Conditions | mass density, 305.65 K [kg/m3] | mass density, 308.15 K [kg/m3] | mass density, 310.65 K [kg/m3] | mass density, 313.15 K [kg/m3] | speed of sound, 308.15 K [m/s] | speed of sound, 310.65 K [m/s] | speed of sound, 313.15 K [m/s] | speed of sound, 315.65 K [m/s]
x2 = 0 | 868.65 ± 0.37 | 866.538 ± 0.37 | 864.422 ± 0.38 | 862.302 ± 0.38 | 1300.7 ± 2.2 | 1290.6 ± 2.2 | 1280.6 ± 2.2 | 1270.5 ± 2.2
x2 = 0.052 | 861.853 ± 0.4 | 859.718 ± 0.4 | 857.577 ± 0.41 | 855.433 ± 0.41 | 1293.5 ± 2.2 | 1283.5 ± 2.2 | 1273.4 ± 2.2 | 1263.4 ± 2.2
x2 = 0.101 | 855.807 ± 0.41 | 853.654 ± 0.41 | 851.495 ± 0.41 | 849.333 ± 0.42 | 1278.9 ± 2.2 | 1268.9 ± 2.2 | 1258.9 ± 2.2 | 1248.9 ± 2.2
x2 = 0.203 | 842.365 ± 0.43 | 840.166 ± 0.43 | 837.963 ± 0.43 | 835.755 ± 0.44 | 1249.1 ± 2.2 | 1238.9 ± 2.2 | 1228.7 ± 2.2 | 1218.5 ± 2.2
x2 = 0.303 | 829.01 ± 0.45 | 826.764 ± 0.45 | 824.515 ± 0.45 | 822.257 ± 0.46 | 1218.2 ± 2.2 | 1207.9 ± 2.2 | 1197.6 ± 2.2 | 1187.3 ± 2.2
x2 = 0.401 | 815.857 ± 0.47 | 813.564 ± 0.47 | 811.267 ± 0.47 | 808.961 ± 0.48 | 1188.5 ± 2.2 | 1178 ± 2.2 | 1167.5 ± 2.2 | 1157.1 ± 2.2
x2 = 0.499 | 801.959 ± 0.49 | 799.615 ± 0.49 | 797.264 ± 0.5 | 794.906 ± 0.5 | 1157 ± 2.2 | 1146.5 ± 2.2 | 1135.9 ± 2.2 | –
x2 = 0.604 | 786.901 ± 0.51 | 784.495 ± 0.51 | 782.083 ± 0.52 | 779.664 ± 0.52 | 1124.5 ± 2.2 | 1113.6 ± 2.2 | 1102.8 ± 2.2 | –
x2 = 0.707 | 771.779 ± 0.53 | 769.312 ± 0.54 | 766.837 ± 0.54 | 764.349 ± 0.54 | 1089.9 ± 2.2 | 1078.8 ± 2.2 | 1067.7 ± 2.2 | –
x2 = 0.8 | 757.862 ± 0.55 | 755.336 ± 0.56 | 752.799 ± 0.56 | 750.25 ± 0.57 | 1058 ± 2.2 | 1046.9 ± 2.2 | 1035.9 ± 2.2 | –
x2 = 0.9 | 742.391 ± 0.58 | 739.788 ± 0.58 | 737.174 ± 0.58 | 734.547 ± 0.59 | 1026.9 ± 2.2 | 1015.4 ± 2.2 | 1003.8 ± 2.2 | –
x2 = 0.95 | 734.452 ± 0.59 | 731.817 ± 0.59 | 729.169 ± 0.6 | 726.508 ± 0.6 | 1007.3 ± 2.2 | 996.05 ± 2.2 | 984.72 ± 2.2 | –
